Data: a melting point compilation (Tetko et al.; mined from patent text by program, amines drawn as free bases though some values may be those of a salt)

`COc1ccc(CNc2nc(NCc3ccc(OC)cc3)c3[nH]nc(C(C)C)c3n2)cc1` showed a melting point of 60 to 85 °C.
`COc1ccc(N2CCN(c3c(C)c(C)c4c(c3C)C(CCc3ccccc3)C(C)(C)O4)CC2)cc1` (stereo not given) gave a melting point of 92 to 94 °C.
For `O=C(NCCCn1cncn1)Nc1ccc(Cl)cc1`, the melting point was 137 to 139 °C.
`COC(=O)Nc1nc2ccccc2n1CCCN1CCN(C(c2ccccc2)c2ccccc2)CC1` gave a melting point of 138 °C.
Work on `CCOC(=O)Cc1ccnc(C(SC)=C(C#N)C#N)c1` yielded a melting point of 148 to 152 °C.
In the case of `COc1cccc(C(=O)NN=C2CCc3ccccc3C2)c1C`, the melting point is reported as 138 °C.
`ClC1CCCOC1c1ccccc1` (stereo not given) showed a melting point of 39.5 to 40.5 °C.
`Cc1ccc(N)cc1Nc1nccc(-c2cncnc2)n1` gave a melting point of 164 to 167 °C.
In the case of `Clc1cnc2c(C(Cl)Cl)c(Cl)ccc2c1`, the melting point is reported as 154 °C.
`c1ccc(CCN2CCC(Nc3nc4ccccc4n3CCc3cccs3)CC2)cc1` showed a melting point of 118 °C.
`CON=C(c1ccccc1OCc1ccc(C)cc1)n1ccnc1` showed a melting point of 70.5 to 72 °C.
Work on `CCCC1=C(C#N)C(c2ccccc2C)c2c[nH]nc2N1` (stereo not given) yielded a melting point of 230 °C.
In the case of `NC(=O)c1ccc(N2CCNCC2)cc1`, the melting point is reported as 240 to 243 °C.
In the case of `Cc1cccc(SCn2cc(Cl)cnc2=O)c1`, the melting point is reported as 134 °C.
With `Cc1c(C)c(O)c([N+](=O)[O-])c(C)c1O` the melting point was 105 to 106 °C.
Molecule `COC=C(C(=O)OC)c1ccccc1CCc1ccccc1` has a melting point of 52 to 54 °C.
With `CC(=O)NC1CCN(Cc2cnc3cc(NC(=O)c4ccc(-c5ccc(F)cc5)cc4)ccc3c2)C1` (stereo not given) the melting point was 250 to 253 °C.
`NC(N)=NC(=O)Cc1c(-c2ccccc2)csc1-c1ccc(Oc2ccccc2)cc1` gave a melting point of 116 to 118 °C.
Work on `CCCCc1nc2c(N)nc3ccc(O)cc3c2n1CCCCNC(=O)c1ccccc1` yielded a melting point of 188 to 190 °C.
`CNC(=O)Nc1ccc(Oc2ccc3c(c2)CCC(C)(OC)O3)cc1` (stereo not given) gave a melting point of 140 °C.
For `O=C(c1cccs1)C(O)c1ccc(Cl)c(Cl)c1` (stereo not given), the melting point was 108 to 109 °C.
`CC(c1ccccc1)C(Br)C(=O)c1ccccc1` (stereo not given) showed a melting point of 69 to 71 °C.
For `CC(C)CNC(=NC#N)Nc1cccnc1`, the melting point was 148 to 149 °C.
`CC(C)(C)OC(=O)N1CCC(NC(=O)c2ccc(-n3ncc4ccccc43)cc2)CC1` gave a melting point of 165 to 166 °C.
In the case of `CCCCCCCCCOC1C(O)C(CO)OC1n1cnc2c(=O)[nH]c(NC(=O)C(C)C)nc21` (stereo not given), the melting point is reported as 168 to 169 °C.
`CCc1c(C(F)(F)F)noc1NS(=O)(=O)c1cccc2ccccc12` showed a melting point of 135 to 137 °C.
In the case of `CCOC(=O)N1CCc2nc3ccccc3c(C)c2CC1`, the melting point is reported as 125 °C.
Work on `CCOC(=O)c1ccc(-n2cnnc2S)cc1` yielded a melting point of 194 to 196 °C.
In the case of `O=C(C=Cc1ccccc1S(=O)(=O)Nc1ccccc1)NO`, the melting point is reported as 205 to 206 °C.
`COC(=O)c1cc(N)ccc1Oc1ccccc1` gave a melting point of 154 to 156 °C.
Molecule `CCN(CC)C(=O)Nc1ccc(S(=O)(=O)Cl)cc1` has a melting point of 148 to 150 °C.
`COc1ccc(CC#N)cc1S(N)(=O)=O` gave a melting point of 173 to 177 °C.
`COCCNC(=O)c1cccc(-c2ccc(F)c3cc(Cc4cc(F)cc(Cl)c4)sc23)c1` showed a melting point of 90 to 110 °C.
For `N#CC1(c2ccc(NC(=O)c3ccc4c(c3)OCCO4)cc2)CCCC1`, the melting point was 164 to 167 °C.
Molecule `CCn1c(=O)c2nc(-c3ccc(/C=C/C(=O)O)cc3)[nH]c2n(C)c1=O` has a melting point of over 300 °C.
In the case of `COc1ccc(-n2c(=O)c(C)nc3cccnc32)cc1`, the melting point is reported as 251 to 252 °C.
In the case of `CCN1CC(NC(=O)c2cc(Cl)c(N)cc2OC)C=N1` (stereo not given), the melting point is reported as 132 to 134 °C.
`CCCOCCOc1ccc(-c2ccc3c(c2)C=C(C(=O)Nc2ccc(CN(C)C4CCOCC4)cc2)CCS3(=O)=O)cc1C` gave a melting point of 192 to 195 °C.
`CC(C)C(=O)CC(=O)Nc1ccccc1` gave a melting point of 46.5 to 58.8 °C.
With `Cc1cncc(Oc2cccc(NC(=O)N3CCc4c(cnc5[nH]nc(Br)c45)C3)c2)n1` the melting point was 221 to 223 °C.
Molecule `CCOCc1nc2c(N)nc3ccccc3c2n1CC1(O)CCN(C(=O)Nc2ccccc2)CC1` has a melting point of 184 to 186 °C.
Molecule `Cc1ccc(C)c(C(CCC(=O)O)Oc2cc(OCc3ccsc3)ccc2C#N)c1` (racemic) has a melting point of 135 to 136 °C.
Molecule `N#Cc1cc(F)c(Sc2nc[nH]n2)cc1F` has a melting point of 185 °C.
For `O=C(Cc1cccc(C(F)(F)F)c1)Cn1cncn1`, the melting point was 85 to 87 °C.
In the case of `Cc1c(C2=NOC(CN3CCC(Cc4ccc(F)cc4)CC3)C2)cc2oc(=O)[nH]c2c1Cl` (stereo not given), the melting point is reported as 131 to 132 °C.
`Cc1ccc(C(C)C)c2oc(SCCN3CCN(CC(=O)Nc4c(C(C)C)cccc4C(C)C)CC3)nc12` showed a melting point of 133 to 134 °C.
`COc1c(O)cccc1C=O` gave a melting point of 116 °C.
Molecule `Cc1nc(C(N)=O)n(COCc2ccccc2)c1Sc1ccccc1` has a melting point of 153 to 154 °C.
Work on `O=C(Cl)CCCCCCCBr` yielded a melting point of 110 to 112 °C.
In the case of `O=C(CN1CCSCC1)N1CCC(C2c3ccc(Cl)c(Br)c3CCc3cc(Br)cnc32)CC1` (stereo not given), the melting point is reported as 172 to 174 °C.
